This experiment addresses T1, human vasopressin V2 receptor subtype (Homo sapiens, UniProt P30518).
T1 construct: host or cells: CHO cells (pZeoSV vector)
Briefly: Vasopressin binding in Chinese Hamster Ovary cell membranes expressing human vasopressin V2 subtype receptors. To be noted: 100 nM, CHO cell membranes, [3H]arginine vasopressin, values without parentheses. An outline of the steps:
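Radioligand displacement on membranes from CHO cells stably expressing human V2 receptor, 25 to 50 μg protein/well, in 50 mM Tris-HCl pH 7.4 with MgCl2, BSA and protease inhibitors. [^3H]arginine vasopressin (8 nM working solution) incubated 60 min at room temperature; bound label measured by filtration and scintillation counting.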

Consider 25 molecules from patent publication US7109193B2, “Tricyclic diazepines tocolytic oxytocin receptor antagonists” (Wyeth, priority 2001, dated 2006).

T1 sequence (P30518 whole entry): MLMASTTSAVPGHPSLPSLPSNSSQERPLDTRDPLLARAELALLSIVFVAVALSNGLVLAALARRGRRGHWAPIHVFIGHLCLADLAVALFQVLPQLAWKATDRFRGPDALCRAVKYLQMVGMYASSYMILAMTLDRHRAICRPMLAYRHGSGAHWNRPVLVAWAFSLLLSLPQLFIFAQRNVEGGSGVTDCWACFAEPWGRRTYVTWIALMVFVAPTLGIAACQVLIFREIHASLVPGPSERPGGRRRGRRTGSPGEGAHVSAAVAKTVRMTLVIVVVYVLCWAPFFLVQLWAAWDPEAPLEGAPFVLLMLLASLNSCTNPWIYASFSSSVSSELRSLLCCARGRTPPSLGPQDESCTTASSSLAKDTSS

For orientation: inhibition means the drop in the measured response relative to a control, in per cent. Take `COc1ccccc1-c1ccc(C(=O)N2Cc3ccc(C(=O)NCCC4CCCN4C)n3Cc3ccccc32)cc1` (stereo not shown) [Example 165, 10-[(2′-Methoxy[1,1′-biphenyl]-4-yl)carbonyl]-N-[2-(1-methyl-2-pyrrolidinyl)ethyl]-10,11-dihydro-5H-pyrrolo[2,1-c][1,4]benzodiazepine-3-carboxamide]: the inhibition at 0.1 µM is 25%.
Regarding `COc1cc(C(=O)N2Cc3ccc(C(=O)N4CCN(C(C)C)CC4)n3Cc3ccccc32)ccc1-c1ccccc1C` [Example 237, (4-isopropyl-1-piperazinyl){10-[(2-methoxy-2′-methyl[1,1′-biphenyl]-4-yl)carbonyl]-10,11-dihydro-5H-pyrrolo[2,1-c][1,4]benzodiazepin-3-yl}methanone], the inhibition at 0.1 µM was -3%.
The same measure for `COc1cc2c(cc1OC)N(C(=O)c1ccc(-c3ccccc3C(F)(F)F)c(C)c1)Cc1cccn1C2` [Example 12, 7,8-Dimethoxy-[10,11-dihydro-5H-pyrrolo[2,1-c][1,4]benzodiazepin-10-yl][2-methyl-2′-(trifluoromethyl)[1,1′-biphenyl]-4-yl]methanone]: -1%; for `C=CCN1CCN(C(=O)c2ccc3n2Cc2ccccc2N(C(=O)c2ccc(-c4cccc5ccccc45)c(OC)c2)C3)CC1` [Example 231, (4-Allyl-1-piperazinyl){10-[3-methoxy-4-(1-naphthyl)benzoyl]-10,11-dihydro-5H -pyrrolo[2,1-c][1,4]benzodiazepin-3-yl}methanone]: -5%.
As for `C=CCN1CCN(C(=O)c2ccc3n2Cc2ccccc2N(C(=O)c2cc(Cl)c(-c4cccc(OC)c4)cc2OC)C3)CC1` [Example 226, (4-Allyl-1-piperazinyl){10-[(6-chloro-3,3′-dimethoxy[1,1′-biphenyl]-4-yl)carbonyl]-10,11-dihydro-5H-pyrrolo[2,1-c][1,4]benzodiazepin-3-yl}methanone], the inhibition at 0.1 µM stood at 10%.
The same measure for `COc1ccccc1-c1ccc(C(=O)N2Cc3ccc(C(=O)N4CCN(C(C)C)CC4)n3Cc3ccccc32)cc1` [Example 234, (4-Isopropyl-1-piperazinyl){10-[(2′-methoxy[1,1′-biphenyl]-4-yl)carbonyl]-10,11-dihydro-5H-pyrrolo[2,1-c][1,4]benzodiazepin-3-yl}methanone]: 22%.
The value for `COc1cccc(-c2ccc(C(=O)N3Cc4ccc(C(=O)N(C)C5CCN(C)CC5)n4Cc4ccccc43)cc2C)c1` [Example 176, 10-[(3′-Methoxy-2-methyl[1,1′-biphenyl]-4-yl)carbonyl]-N-methyl-N-(1-methyl-4-piperidinyl)-10,11-dihydro-5H-pyrrolo[2,1-c][1,4]benzodiazepine-3-carboxamide] was 18%.
As for `COc1ccccc1-c1ccc(C(=O)N2Cc3ccc(C(=O)N4CCN(CCN(C)C)CC4)n3Cc3ccccc32)cc1OC` [Example 204, {10-[(2,2′-Dimethoxy[1,1′-biphenyl]-4-yl)carbonyl]-10,11-dihydro-5H-pyrrolo[2,1-c][1,4]benzodiazepin-3-yl}{4-[2-(dimethylamino)ethyl]-1-piperazinyl}methanone], the inhibition at 0.1 µM was 6%.
Regarding `COc1cc(C(=O)N2Cc3ccc(C(=O)N4CCN(CCN(C)C)CC4)n3Cc3ccccc32)ccc1-c1ccccc1C` [Example 201, {4-[2-(Dimethylamino)ethyl]-1-piperazinyl}{10-[(2-methoxy-2′-methyl[1,1′-biphenyl]-4-yl)carbonyl]-10,11-dihydro-5H-pyrrolo[2,1-c][1,4]benzodiazepin-3-yl}methanone], the inhibition at 0.1 µM was 19%.
The value for `COc1cc(C(=O)N2Cc3ccc(C(=O)N4CCN(CCN5CCOCC5)CC4)n3Cc3ccccc32)ccc1-c1cccc2ccccc12` [Example 213, {10-[3-Methoxy-4-(1-naphthyl)benzoyl]-10,11-dihydro-5H-pyrrolo[2,1-c][1,4]benzodiazepin-3-yl}{4-[2-(4-morpholinyl)ethyl]-1-piperazinyl}methanone] was 33%; that for `COc1ccccc1-c1ccc(C(=O)N2Cc3ccc(C(=O)N(C)C4CCN(C)C4)n3Cc3ccccc32)cc1` (stereo not shown) [Example 187, 10-[(2′-Methoxy[1,1′-biphenyl]-4-yl)carbonyl]-N-methyl-N-(1-methyl-3-pyrrolidinyl)-10,11-dihydro-5H-pyrrolo[2,1-c][1,4]benzodiazepine-3-carboxamide] was 31%.
The value for `COc1cc(-c2ccccc2C)c(Cl)cc1C(=O)N1Cc2ccc(C(=O)N(C)C3CCN(C)CC3)n2Cc2ccccc21` [Example 180, 10-[(6-Chloro-3-methoxy-2′-methyl[1,1′-biphenyl]-4-yl)carbonyl]-N-methyl-N-(1-methyl-4-piperidinyl)-10,11-dihydro-5H-pyrrolo[2,1-c][1,4]benzodiazepine-3-carboxamide] was 14%; that for `COc1cc(C(=O)N2Cc3ccc(C(=O)NCCC4CCCN4C)n3Cc3ccccc32)ccc1-c1ccccc1C` (stereo not shown) [Example 167, 10-[(2-Methoxy-2′-methyl[1,1′-biphenyl]-4-yl)carbonyl]-N-[2-(1-methyl-2-pyrrolidinyl)ethyl]-10,11-dihydro-5H-pyrrolo[2,1-c][1,4]benzodiazepine-3-carboxamide] was 20%; that for `COc1ccccc1-c1ccc(C(=O)N2Cc3ccc(C(=O)NCCC4CCCN4C)n3Cc3ccccc32)cc1OC` (stereo not shown) [Example 171, 10-[(2,2′-Dimethoxy[1,1′-biphenyl]-4-yl)carbonyl]-N-[2-(1-methyl-2-pyrrolidinyl)ethyl]-10,11-dihydro-5H-pyrrolo[2,1-c][1,4]benzodiazepine-3-carboxamide] was 14%.
The same measure for `COc1ccccc1-c1ccc(C(=O)N2Cc3ccc(C(=O)N4CCN(C(C)C)CC4)n3Cc3ccccc32)cc1OC` [Example 241, {10-[(2,2′-Dimethoxy[1,1-biphenyl]4-yl)carbonyl]-10,11-dihydro-5H-pyrrolo[2,1-c][1,4]benzodiazepin-3-yl}(4-isopropyl-1-piperazinyl)methanone]: -17%; for `COc1cccc(-c2ccc(C(=O)N3Cc4ccc(C(=O)N5CCN(CCN6CCOCC6)CC5)n4Cc4ccccc43)cc2C)c1` [Example 208, {10-[(3′-Methoxy-2-methyl[1,1′-biphenyl]-4-yl)carbonyl]-10,11-dihydro-5H-pyrrolo[2,1-c][1,4]benzodiazepin-3-yl}{4-[2-(4-morpholinyl)ethyl]-1-piperazinyl}methanone]: 12%; for `COc1cc(-c2ccccc2C)c(Cl)cc1C(=O)N1Cc2ccc(C(=O)N3CCN(C(C)C)CC3)n2Cc2ccccc21` [Example 238, {10-[(6-Chloro-3-methoxy-2′-methyl[1,1′-biphenyl]-4-yl)carbonyl]-10,11-dihydro-5H -pyrrolo[2,1-c][1,4]benzodiazepin-3-yl}(4-isopropyl-1-piperazinyl)methanone]: 27%.
Consider `COc1ccccc1-c1ccc(C(=O)N2Cc3ccc(C(=O)N(C)C4CCN(C)CC4)n3Cc3ccccc32)cc1C` [Example 175, 10-[(2′-Methoxy-2-methyl[1,1′-biphenyl]-4-yl)carbonyl]-N-methyl-N-(1-methyl-4-piperidinyl)-10,11-dihydro-5H-pyrrolo[2,1-c][1,4]benzodiazepine-3-carboxamide], for which the inhibition at 0.1 µM worked out at 17%.
The same measure for `CN(C)CCN1CCN(C(=O)c2ccc3n2Cc2ccccc2N(C(=O)c2ccc(-c4cccc5ccccc45)cc2Cl)C3)CC1` [Example 205, {10-[2-Chloro-4-(1-naphthyl)benzoyl]-10,11-dihydro-5H-pyrrolo[2,1-c][1,4]benzodiazepin-3-yl}{4-[2-(dimethylamino)ethyl]-1-piperazinyl}methanone]: 18%.
Regarding `COc1cc(C(=O)N2Cc3ccc(C(=O)N(C)C4CCN(C)C4)n3Cc3ccccc32)ccc1-c1ccccc1C` (stereo not shown) [Example 189, 10-[(2-Methoxy-2′-methyl[1,1′-biphenyl]-4-yl)carbonyl]-N-methyl-N-(1-methyl-3-pyrrolidinyl)-10,11-dihydro-5H-pyrrolo[2,1-c][1,4]benzodiazepine-3-carboxamide], the inhibition at 0.1 µM was 22%.
The same measure for `COc1cc(-c2ccccc2C(F)(F)F)c(Cl)cc1C(=O)N1Cc2ccc(C(=O)O)n2Cc2ccccc21` [Example 15, 10-{[6-Chloro-3-methoxy-2′-trifluoromethyl-[1,1′-biphenyl]-4-yl]carbonyl}-10,11-dihydro-5H-pyrrolo[2,1-c][1,4]benzodiazepine-3-carboxylic acid]: 27%.
The value for `Cc1ccccc1-c1ccc(C(=O)N2Cc3ccc(C(=O)NCCC4CCCN4C)n3Cc3ccccc32)cc1` (stereo not shown) [Example 166, 10-[(2′-Methyl[1,1′-biphenyl]-4-yl)carbonyl]-N-[2-(1-methyl-2-pyrrolidinyl)ethyl]-10,11-dihydro-5H-pyrrolo[2,1-c][1,4]benzodiazepine-3-carboxamide] was 3%; that for `COc1cccc(-c2cc(OC)c(C(=O)N3Cc4ccc(C(=O)NCCC5CCCN5C)n4Cc4ccccc43)cc2Cl)c1` (stereo not shown) [Example 169, 10-[(6-Chloro-3,3′-dimethoxy[1,1′-biphenyl]-4-yl)carbonyl]-N-[2-(1-methyl-2-pyrrolidinyl)ethyl]-10,11-dihydro-5H-pyrrolo[2,1-c][1,4]benzodiazepine-3-carboxamide] was 5%.
Take `COc1cccc(-c2ccc(C(=O)N3Cc4ccc(C(=O)N5CCN(CCN6CCOCC6)CC5)n4Cc4ccccc43)cc2OC)c1` [Example 211, {10-[(2,3′-Dimethoxy[1,1′-biphenyl]-4-yl)carbonyl]-10,11-dihydro-5H-pyrrolo[2,1-c][1,4]benzodiazepin-3-yl}{4-[2-(4-morpholinyl)ethyl]-1-piperazinyl}methanone]: the inhibition at 0.1 µM came out at 23%.
With `COc1ccccc1-c1ccc(C(=O)N2Cc3ccc(C(=O)NCCC4CCCN4C)n3Cc3ccccc32)cc1C` (stereo not shown) [Example 162, 10-[(2′-Methoxy-2-methyl[1,1′-biphenyl]-4-yl)carbonyl]-N-[2-(1-methyl-2-pyrrolidinyl)ethyl]-10,11-dihydro-5H-pyrrolo[2,1-c][1,4]benzodiazepine-3-carboxamide], the inhibition at 0.1 µM is 20%.
